Measurements taken from patent US9884868B2, “TGF-beta inhibitors” (Rigel Pharmaceuticals, Inc., priority 2015, dated 2018).

Molecular target: HIS-TGF-βR1 T204D (Homo sapiens (Human), UniProt P36897, T204D)
Assay: HTRF probe displacement assay with HIS-TGF-βR1 T204D
Conditions: read-out: TGFbr1 IC50; HTRF probe displacement, 1 nM HIS-TGF-βR1 T204D, 1 hour at room temperature

Sequence of HIS-TGF-βR1 T204D (P36897 34-503 T204D): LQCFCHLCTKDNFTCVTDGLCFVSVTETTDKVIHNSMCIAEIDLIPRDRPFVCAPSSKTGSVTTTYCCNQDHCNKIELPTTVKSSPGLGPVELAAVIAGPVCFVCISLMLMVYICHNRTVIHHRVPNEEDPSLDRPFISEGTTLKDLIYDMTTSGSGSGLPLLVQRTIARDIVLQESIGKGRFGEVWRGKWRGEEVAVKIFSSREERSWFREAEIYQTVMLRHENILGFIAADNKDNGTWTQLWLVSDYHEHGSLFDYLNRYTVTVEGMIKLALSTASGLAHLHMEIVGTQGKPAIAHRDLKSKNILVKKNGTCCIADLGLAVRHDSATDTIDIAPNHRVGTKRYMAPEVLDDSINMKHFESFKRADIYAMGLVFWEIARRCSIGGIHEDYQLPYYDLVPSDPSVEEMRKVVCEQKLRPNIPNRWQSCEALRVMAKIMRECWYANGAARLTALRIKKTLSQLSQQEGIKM

Row | SMILES | IC50 [nM]
1 | CCC(C)n1cnc(-c2ccc(F)cc2)c1-c1ccc2ncc(C#N)n2c1 (stereo not shown) [67′, 6-(1-(sec-butyl)-4-(4-fluorophenyl)-1H-imidazol-5-yl)imidazo[1,2-a]pyridine-3-carbonitrile] | 55.8
2 | COc1ccc(-c2ncn(CC(F)F)c2-c2ccc3ncc(C#N)n3n2)cc1 [242′, 6-(1-(2,2-difluoroethyl)-4-(4-methoxyphenyl)-1H-imidazol-5-yl)imidazo[1,2-b]pyridazine-3-carbonitrile] | 5
3 | NC(=O)c1cnc2ccc(-c3c(-c4ccc(F)c(Cl)c4)ncn3CCO)nn12 [138′, 6-(4-(3-chloro-4-fluorophenyl)-1-(2-hydroxyethyl)-1H-imidazol-5-yl)imidazo[1,2-b]pyridazine-3-carboxamide] | 0.7
4 | CC(C)(O)c1cnc2ccc(-c3c(-c4ccc(F)cc4)ncn3CC(F)F)cn12 [Example 278′] | 184
5 | CCn1cnc(-c2ccc(F)c(Cl)c2)c1-c1ccc2ncc(C(N)=O)n2n1 [117′, 6-(4-(3-chloro-4-fluorophenyl)-1-ethyl-1H-imidazol-5-yl)imidazo[1,2-b]pyridazine-3-carboxamide] | 0.6
6 | OCc1cnc2ccc(-c3c(-c4ccc(F)cc4)ncn3CC(F)F)cn12 [274D′, (6-(1-(2,2-difluoroethyl)-4-(4-fluorophenyl)-1H-imidazol-5-yl)imidazo[1,2-a]pyridin-3-yl)methanol] | 92.6
7 | Cc1nc(-c2ccc(F)cc2)c(-c2ccc3ncc(C(N)=O)n3c2)n1CC(F)F [Example 272′, 6-(1-(2,2-difluoroethyl)-4-(4-fluorophenyl)-2-methyl-1H-imidazol-5-yl)imidazo[1,2-a]pyridine-3-carboxamide] | 10.4
8 | N#Cc1cnc2ccc(-c3c(-c4ccc(F)cc4)ncn3C34CC(C3)C4)nn12 [25′, 6-(1-(bicyclo[1.1.1]pentan-1-yl)-4-(4-fluorophenyl)-1H-imidazol-5-yl)imidazo[1,2-b]pyridazine-3-carbonitrile] | 2.6
9 | N#Cc1cnc2ccc(-c3c(-c4ccc(F)cc4)ncn3CCCO)nn12 [15′, 6-(4-(4-fluorophenyl)-1-(3-hydroxypropyl)-1H-imidazol-5-yl)imidazo[1,2-b]pyridazine-3-carbonitrile] | 2
10 | CCOCCn1cnc(-c2ccc(F)cc2)c1-c1ccc2ncc(C#N)n2c1 [91′, 6-(1-(2-ethoxyethyl)-4-(4-fluorophenyl)-1H-imidazol-5-yl)imidazo[1,2-a]pyridine-3-carbonitrile] | 18.8
11 | CC(F)(F)Cn1cnc(-c2ccc(F)c(Cl)c2)c1-c1ccc2ncc(C(N)=O)n2n1 [151′, 6-(4-(3-chloro-4-fluorophenyl)-1-(2,2-difluoropropyl)-1H-imidazol-5-yl)imidazo[1,2-b]pyridazine-3-carboxamide] | 0.6
12 | N#CCCn1cnc(-c2ccc(F)cc2)c1-c1ccc2ncc(C#N)n2n1 [268′, 6-(1-(2-cyanoethyl)-4-(4-fluorophenyl)-1H-imidazol-5-yl)imidazo[1,2-b]pyridazine-3-carbonitrile] | 19
13 | N#Cc1cnc2ccc(-c3c(-c4ccc(F)cc4)ncn3C[C@H](O)CO)cn12 [92′, (S)-6-(1-(2,3-dihydroxypropyl)-4-(4-fluorophenyl)-1H-imidazol-5-yl)imidazo[1,2-a]pyridine-3-carbonitrile] | 266
14 | CN1CCn2c(nc(-c3ccc(F)cc3)c2-c2ccc3ncc(C(N)=O)n3c2)C1 [Example 293′, 6-(2-(4-fluorophenyl)-7-methyl-5,6,7,8-tetrahydroimidazo[1,2-a]pyrazin-3-yl)imidazo[1,2-a]pyridine-3-carboxamide] | 43.3
15 | CC(C)(F)Cn1cnc(-c2ccc(F)cc2)c1-c1ccc2ncc(C#N)n2n1 [23′, 6-(1-(2-fluoro-2-methylpropyl)-4-(4-fluorophenyl)-1H-imidazol-5-yl)imidazo[1,2-b]pyridazine-3-carbonitrile] | 1.9
16 | Cc1nc(-c2ccc(F)cc2)c(-c2ccc3nccn3c2)n1CC(F)F [Example 271′, 6-(1-(2,2-difluoroethyl)-4-(4-fluorophenyl)-2-methyl-1H-imidazol-5-yl)imidazo[1,2-a]pyridine] | 172
17 | CC(C)n1cnc(-c2ccc(F)c(Cl)c2)c1-c1ccc2ncc(C(N)=O)n2n1 [116′, 6-(4-(3-chloro-4-fluorophenyl)-1-isopropyl-1H-imidazol-5-yl)imidazo[1,2-b]pyridazine-3-carboxamide] | 0.9
18 | CC(C)(O)CCn1cnc(-c2ccc(F)c(Cl)c2)c1-c1ccc2ncc(C#N)n2n1 [37′, 6-(4-(3-chloro-4-fluorophenyl)-1-(3-hydroxy-3-methylbutyl)-1H-imidazol-5-yl)imidazo[1,2-b]pyridazine-3-carbonitrile] | 2.5
19 | Fc1cc(F)c(-c2ncn(CC(F)F)c2-c2ccc3nccn3c2)cc1Cl [223′, 6-(4-(5-chloro-2,4-difluorophenyl)-1-(2,2-difluoroethyl)-1H-imidazol-5-yl)imidazo[1,2-a]pyridine] | 2.2
20 | OCCc1cnc2ccc(-c3c(-c4ccc(F)cc4)ncn3CC(F)F)nn12 [Example 217′, 2-(6-(1-(2,2-difluoroethyl)-4-(4-fluorophenyl)-1H-imidazol-5-yl)imidazo[1,2-b]pyridazin-3-yl)ethanol] | 3.2
21 | N#Cc1cnc2ccc(-c3c(-c4ccc(F)c(Cl)c4)ncn3CCC3CCC3)nn12 [40′, 6-(4-(3-chloro-4-fluorophenyl)-1-(2-cyclobutylethyl)-1H-imidazol-5-yl)imidazo[1,2-b]pyridazine-3-carbonitrile] | 0.6
22 | NC(=O)c1cnc2ccc(-c3c(-c4ccc(F)cc4)ncn3C[C@@H](O)CO)cn12 [164′, (R)-6-(1-(2,3-dihydroxypropyl)-4-(4-fluorophenyl)-1H-imidazol-5-yl)imidazo[1,2-a]pyridine-3-carboxamide] | 5.7
23 | N#Cc1cnc2ccc(-c3c(-c4ccc(F)cc4)nc(N)n3CC(F)F)cn12 [Example 298′, 6-(2-amino-1-(2,2-difluoroethyl)-4-(4-fluorophenyl)-1H-imidazol-5-yl)imidazo[1,2-a]pyridine-3-carbonitrile] | 44.8
24 | NC(=O)c1cnc2ccc(-c3c(-c4ccc(F)cc4)ncn3C3CCCC3)cn12 [159′, 6-(1-cyclopentyl-4-(4-fluorophenyl)-1H-imidazol-5-yl)imidazo[1,2-a]pyridine-3-carboxamide] | 0.8
25 | CC[C@@H](CO)n1cnc(-c2ccc(F)cc2)c1-c1ccc2ncc(C(N)=O)n2n1 [125′, (S)-6-(4-(4-fluorophenyl)-1-(1-hydroxybutan-2-yl)-1H-imidazol-5-yl)imidazo[1,2-b]pyridazine-3-carboxamide] | 2.6
26 | Fc1ccc(-c2ncn(CC(F)F)c2-c2ccc3nccn3c2)cc1Cl [219′, 6-(4-(3-chloro-4-fluorophenyl)-1-(2,2-difluoroethyl)-1H-imidazol-5-yl)imidazo[1,2-a]pyridine] | 9.9
27 | N#Cc1cnc2ccc(-c3c(-c4ccc(F)cc4)ncn3C3CNC3)nn12 [190C′, 6-(1-(azetidin-3-yl)-4-(4-fluorophenyl)-1H-imidazol-5-yl)imidazo[1,2-b]pyridazin-3-carbonitrile] | 86.2
28 | N#Cc1cnc2ccc(-c3c(-c4ccc(F)c(Cl)c4)ncn3C[C@@H]3CCCO3)nn12 [42′, (S)-6-(4-(3-chloro-4-fluorophenyl)-1-((tetrahydrofuran-2-yl)methyl)-1H-imidazol-5-yl)imidazo[1,2-b]pyridazine-3-carbonitrile] | 1.8
